The text below walks through data of patent US7605269B2, “Thiophene derivatives as Sphingosine-1-phosphate-1 receptor agonists” (Actelion Pharmaceuticals Ltd., priority 2005, dated 2009).

Each structure is given as a SMILES string.

For assay [1], the target named is recombinant human S1P1 receptor (Homo sapiens, UniProt P21453). The experiment in a line: GTPγS assay to determine EC50 values. The assay is classed as biochemical. Particulars: 35S-GTPγS binding, membrane preparations of CHO cells expressing recombinant human S1P1 receptor. As for the experimental part:
The pH is 7.4. Test compounds are dissolved and diluted in 100% DMSO and pre-incubated at room temperature for 30 min in 150 μl of the above assay buffer, in the absence of ^35S-GTPγS. After addition of 50 μl of ^35S-GTPγS, the assay is incubated for 1 h at room temperature. […] Membrane-bound ^35S-GTPγS is measured with a TopCount from Packard Biosciences.
Specific binding is determined by subtracting non-specific binding from maximal binding. Maximal binding is the amount of cpm bound to the Multiscreen plate in the presence of 10 μM of S1P. Non-specific binding is the amount of binding in the absence of an agonist in the assay.
(In general: GTPγS is a poorly hydrolysed GTP analogue; its binding reports G protein activation.)

The subject of assay [2] is circulating lymphocytes. Nature of the assay: Assessment of in vivo efficacy: circulating lymphocytes after oral administration. Also noted: species or system rat. Particulars: 6 h after oral administration of 10 mg/kg, normotensive male Wistar rats, compared to vehicle-treated group.
Procedure: The efficacy of the compounds of Formula (I) is assessed by measuring the circulating lymphocytes after oral administration of 3 to 30 mg/kg of a compound of Formula (I) to normotensive male Wistar rats. The animals are housed in climate-controlled conditions with a 12 h-light/dark cycle, and have free access to normal rat chow and drinking water. Blood is collected before and 3, 6 and 24 h after drug administration. Full blood is subjected to hematology using Advia Hematology system (Bayer Diagnostics, Zurich, Switzerland).
All data are presented as mean ±SEM. Statistical analyses are performed by analysis of variance (ANOVA) using Statistica (StatSoft) and the Student-Newman-Keuls procedure for multiple comparisons. The null hypothesis is rejected when p<0.05.

recombinant human S1P1 receptor, sequence (P21453 whole entry): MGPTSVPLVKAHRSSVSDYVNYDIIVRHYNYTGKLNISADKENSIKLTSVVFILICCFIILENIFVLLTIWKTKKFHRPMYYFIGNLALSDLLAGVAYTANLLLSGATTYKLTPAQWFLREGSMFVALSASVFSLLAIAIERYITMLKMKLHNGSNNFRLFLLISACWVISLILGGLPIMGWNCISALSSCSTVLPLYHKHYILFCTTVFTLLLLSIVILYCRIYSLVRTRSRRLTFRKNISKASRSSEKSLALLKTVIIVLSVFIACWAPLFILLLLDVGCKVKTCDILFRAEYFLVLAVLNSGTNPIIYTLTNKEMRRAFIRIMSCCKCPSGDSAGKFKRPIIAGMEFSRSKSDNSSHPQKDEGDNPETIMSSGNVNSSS

As a reminder, the EC50 is the concentration needed to bring the measured effect to its halfway point. As for `Cc1cc(-c2nc(-c3sc(C)c4c3C[C@@H]3[C@H]4C3(C)C)no2)cc(C)c1O` [Example 38, 2,6-dimethyl-4-[3-((1aS,5aR)-1,1,2-trimethyl-1,1a,5,5a-tetrahydro-3-thia-cyclopropa[a]pentalen-4-yl)-[1,2,4]oxadiazol-5-yl]-phenol], the EC50 in assay [1] came to 1.6 nM.

For the molecule `Cc1cc(-c2nc(-c3sc(C)c4c3C[C@@H]3[C@H]4C3(C)C)no2)cc(C)c1OCCO` [Example 39, 2-{2,6-dimethyl-4-[3-((1aS,5aR)-1,1,2-trimethyl-1,1a,5,5a-tetrahydro-3-thia-cyclopropa[a]pentalen-4-yl)-[1,2,4]oxadiazol-5-yl]-phenoxy}-ethanol], in assay [1], the EC50 is 1.1 nM.

Turning to `Cc1cc(-c2noc(-c3sc(C)c4c3C[C@@H]3[C@H]4C3(C)C)n2)cc(C)c1OCCCN` [Example 24, 3-{2,6-dimethyl-4-[5-((1aS,5aR)-1,1,2-trimethyl-1,1a,5,5a-tetrahydro-3-thia-cyclopropa[a]pentalen-4-yl)-[1,2,4]oxadiazol-3-yl]-phenoxy}-propylamine], the EC50 in assay [1] is 4.8 nM.

`Cc1cc(-c2noc(-c3sc(C)c4c3C[C@@H]3[C@H]4C3(C)C)n2)cc(C)c1OCCCNCCO` [Example 27, 2-(3-{2,6-dimethyl-4-[5-((1aS,5aR)-1,1,2-trimethyl-1,1a,5,5a-tetrahydro-3-thia-cyclopropa[a]pentalen-4-yl)-[1,2,4]oxadiazol-3-yl]-phenoxy}-propylamino)-ethanol]: the EC50 in assay [1] was 6.1 nM.

Consider `Cc1cc(-c2nc(-c3sc(C)c4c3C[C@@H]3[C@H]4C3(C)C)no2)cc(C)c1OCC(CO)CO` [Example 43, 2-{2,6-dimethyl-4-[3-((1aS,5aR)-1,1,2-trimethyl-1,1a,5,5a-tetrahydro-3-thia-cyclopropa[a]pentalen-4-yl)-[1,2,4]oxadiazol-5-yl]-phenoxymethyl}-propane-1,3-diol], for which the EC50 in assay [1] was determined as 1.4 nM.

In the case of `Cc1sc(-c2nc(-c3ccc(OC[C@H](O)CO)cc3)no2)c2c1[C@H]1[C@@H](C2)C1(C)C` [Example 6, (2R)-3-{4-[5-((1aS,5aR)-1,1,2-trimethyl-1,1a,5,5a-tetrahydro-3-thia-cyclopropa[a]pentalen-4-yl)-[1,2,4]oxadiazol-3-yl]-phenoxy}-propane-1,2-diol], the EC50 in assay [1] came to 12 nM.

As for `Cc1cc(-c2noc(-c3sc(C)c4c3C[C@@H]3[C@H]4C3(C)C)n2)cc(C)c1OCC(CO)CO` [Example 19, 2-{2,6-dimethyl-4-[5-((1aS,5aR)-1,1,2-trimethyl-1,1a,5,5a-tetrahydro-3-thia-cyclopropa[a]pentalen-4-yl)-[1,2,4]oxadiazol-3-yl]-phenoxymethyl}-propane-1,3-diol], in assay [2], the Lymphocyte counts is −56%. In addition, the EC50 in assay [1] came out at 1.2 nM.

On to `Cc1cc(-c2noc(-c3sc(C)c4c3C[C@@H]3[C@H]4C3(C)C)n2)cc(C)c1OCCCN1CCCC1C(=O)O` (stereo partly drawn) [Example 32, 1-(3-{2,6-dimethyl-4-[5-((1aS,5aR)-1,1,2-trimethyl-1,1a,5,5a-tetrahydro-3-thia-cyclopropa[a]pentalen-4-yl)-[1,2,4]oxadiazol-3-yl]-phenoxy}-propyl)-pyrrolidine-2-carboxylic acid], for which the EC50 in assay [1] was found to be 8.8 nM.
